The supplement of paper PMC10307832

Key:
Assay in all cases: relative viability (nuclei count vs DMSO), 5 days (fraction); higher = more cells survive
[1] = compound: Cc1ccc(-n2nc(C(C)(C)C)cc2NC(=O)Nc2ccc(OCCN3CCOCC3)c3ccccc23)cc1 [Doramapimod] + O=C(c1cc(Cc2n[nH]c(=O)c3ccccc23)ccc1F)N1CCN(C(=O)C2CC2)CC1 [Olaparib] (partner 8 µM)
Procedure, shortened: (§1)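 Lung cancer cell lines in 1536-well plates were dosed by pin tool the day after seeding, either with one drug alone or with a fixed anchor-drug dose plus five library-drug doses (not always all listed) in √10 steps. After 5 days, cells were fixed and their nuclei stained in one step (final 0.05% Triton X-100, 1% formaldehyde, 1 ug/ml Hoechst), then counted on 4× images. Relative viability is the nuclei count in treated wells divided by that in vehicle wells. Values are medians of duplicate plates.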

[2] = compound: C1=CC=C2C(=C1)C=CC(=C2SSC3=C(C=CC4=CC=CC=C43)O)O [IPA-3] + C[C@@H](Oc1cc(-c2cnn(C3CCNCC3)c2)cnc1N)c1c(Cl)ccc(F)c1Cl [Crizotinib] (partner 1 µM)
Procedure, shortened: as §1

[3] = compound: C1=CC=C2C(=C1)C=CC(=C2SSC3=C(C=CC4=CC=CC=C43)O)O [IPA-3] + CC(=O)Nc1cccc(-n2c(=O)n(C3CC3)c(=O)c3c(Nc4ccc(I)cc4F)n(C)c(=O)c(C)c32)c1 [Trametinib] (partner 0.02 µM)
Procedure, shortened: as §1

[4] = compound: Cc1ccc(-n2nc(C(C)(C)C)cc2NC(=O)Nc2ccc(OCCN3CCOCC3)c3ccccc23)cc1 [Doramapimod] + CS(=O)(=O)N1CCN(Cc2cc3nc(-c4cccc5[nH]ncc45)nc(N4CCOCC4)c3s2)CC1 [Pictilisib] (partner 1 µM)
Procedure, shortened: as §1

| Cell Line | relative viability ([1]; first compound 0.02 µM) | relative viability ([1]; first compound 0.06325 µM) | relative viability ([1]; first compound 0.2 µM) | relative viability ([1]; first compound 0.6325 µM) | relative viability ([1]; first compound 2 µM) | relative viability ([2]; first compound 0.2 µM) | relative viability ([2]; first compound 0.6325 µM) | relative viability ([2]; first compound 2 µM) | relative viability ([2]; first compound 6.325 µM) | relative viability ([2]; first compound 20 µM) | relative viability ([3]; first compound 0.2 µM) | relative viability ([3]; first compound 0.6325 µM) | relative viability ([3]; first compound 2 µM) | relative viability ([3]; first compound 6.325 µM) | relative viability ([3]; first compound 20 µM) | relative viability ([4]; first compound 0.02 µM) | relative viability ([4]; first compound 0.06325 µM) | relative viability ([4]; first compound 0.2 µM) | relative viability ([4]; first compound 0.6325 µM) | relative viability ([4]; first compound 2 µM) |
| --- | --- | --- | --- | --- | --- | --- | --- | --- | --- | --- | --- | --- | --- | --- | --- | --- | --- | --- | --- | --- |
| SK-MES-1 | 0.707 | 0.694 | 0.638 | 0.683 | 0.607 | 0.981 | 1 | 1.13 | 0.94 | 0.87 | 0.568 | 0.528 | 0.618 | 0.639 | 0.659 | 0.405 | 0.282 | 0.304 | 0.291 | 0.269 |
| NCI-H1355 | 0.76 | 0.732 | 0.708 | 0.721 | 0.7 | 1.21 | 0.999 | 0.778 | 1.07 | 1.11 | 0.462 | 0.476 | 0.428 | 0.423 | 0.443 | 0.438 | 0.356 | 0.386 | 0.366 | 0.332 |
| NCI-H838 | 0.794 | 0.833 | 0.811 | 0.873 | 0.737 | 1.02 | 0.788 | 0.914 | 0.839 | 1.27 | 0.8 | 0.519 | 0.352 | 0.478 | 0.517 | 0.415 | 0.485 | 0.439 | 0.552 | 0.467 |
| LK-2 | 0.656 | 0.778 | 0.656 | 0.493 | 0.397 | 0.202 | 0.229 | 0.227 | 0.22 | 0.193 | 0.904 | 0.752 | 0.721 | 0.846 | 0.934 | 0.538 | 0.545 | 0.464 | 0.368 | 0.349 |
| NCI-H1650 | 0.82 | 0.831 | 0.682 | 0.874 | 0.884 | 1.04 | 0.816 | 1.14 | 0.938 | 1.28 | 0.996 | 0.558 | 0.579 | 0.647 | 0.545 | 0.537 | 0.629 | 0.724 | 0.329 | 0.474 |
| NCI-H322M | 0.849 | 0.827 | 0.864 | 0.857 | 0.884 | 1.08 | 0.933 | 0.96 | 0.886 | 1.1 | 0.459 | 0.481 | 0.567 | 0.453 | 0.581 | 0.902 | 0.501 | 0.577 | 0.585 | 0.479 |
| NCI-H661 | 0.797 | 0.756 | 0.785 | 0.717 | 0.75 | 1.06 | 0.847 | 1.08 | 0.988 | 1.03 | 0.679 | 0.584 | 0.613 | 0.589 | 0.555 | 0.483 | 0.405 | 0.381 | 0.452 | 0.377 |
| NCI-H2228 | 0.558 | 0.599 | 0.857 | 0.811 | 0.592 | 0.437 | 0.383 | 0.439 | 0.376 | 0.597 | 0.768 | 0.405 | 0.365 | 0.634 | 0.379 | 0.374 | 0.563 | 0.417 | 0.366 | 0.337 |
| NCI-H520 | 0.336 | 0.359 | 0.354 | 0.364 | 0.305 | 0.962 | 0.803 | 0.682 | 0.74 | 0.919 | 1.01 | 0.654 | – | 0.685 | 0.528 | 0.238 | 0.278 | 0.252 | 0.288 | 0.22 |
| NCI-H441 | 0.45 | 0.501 | 0.45 | 0.609 | 0.356 | 0.859 | 0.635 | 0.804 | 0.659 | 0.723 | 0.535 | 0.437 | 0.348 | 0.473 | 0.449 | 0.451 | 0.323 | 0.417 | 0.44 | 0.394 |
